Assay results: PubChem BioAssay AID248 (DTP/NCI, 2004)
Where “and” joins values, the source holds several entries; their conditions need not be identical. Identical values can stand only once. Inconclusive results and toxic doses are left out. Rule as the data show it: active = T/C of 150% or more; inactive = T/C below 125%. Peptide text beside a SMILES is read from it.

System: L1210 leukemia ip in BDF1 mice, survival T/C
Assay: NCI In Vivo Anticancer Drug Screen. Data for tumor model L1210 Leukemia (intraperitoneal) in B6D2F1 (BDF1) mice
Conditions: endpoint: mean survival time, higher = longer survival
In short: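 Survival endpoint. Drug-treated group vs vehicle group, expressed as T divided by C. Tumor passaged by transplantation.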

[1] = dose: 100.0 mg/kg/injection, schedule: Q04DX002 (ip), vehicle: Klucel (hydroxypropylcellulose) (HPC)
[2] = dose: 200.0 mg/kg/injection, schedule: Q04DX002 (ip), vehicle: Klucel (hydroxypropylcellulose) (HPC)
[3] = dose: 400.0 mg/kg/injection, schedule: Q04DX002 (ip), vehicle: Klucel (hydroxypropylcellulose) (HPC)
[4] = dose: 50.0 mg/kg/injection, schedule: Q04DX002 (ip), vehicle: Klucel (hydroxypropylcellulose) (HPC)
[5] = dose: 100.0 mg/kg/injection, schedule: Q04DX003 (ip), vehicle: saline with Tween-80
[6] = dose: 200.0 mg/kg/injection, schedule: Q04DX003 (ip), vehicle: saline with Tween-80
[7] = dose: 400.0 mg/kg/injection, schedule: Q04DX003 (ip), vehicle: saline with Tween-80
[8] = dose: 100.0 mg/kg/injection, schedule: Q01DX001 (ip), vehicle: carboxymethylcellulose (CMC)
[9] = dose: 200.0 mg/kg/injection, schedule: Q01DX001 (ip), vehicle: carboxymethylcellulose (CMC)
[10] = dose: 400.0 mg/kg/injection, schedule: Q01DX001 (ip), vehicle: carboxymethylcellulose (CMC)
[11] = dose: 100.0 mg/kg/injection, schedule: Q01DX009 (ip), vehicle: saline with Tween-80
[12] = dose: 200.0 mg/kg/injection, schedule: Q01DX009 (ip), vehicle: saline with Tween-80
[13] = dose: 400.0 mg/kg/injection, schedule: Q01DX009 (ip), vehicle: saline with Tween-80
[14] = dose: 100.0 mg/kg/injection, schedule: Q01DX001 (ip), vehicle: saline
[15] = dose: 200.0 mg/kg/injection, schedule: Q01DX001 (ip), vehicle: saline
[16] = dose: 400.0 mg/kg/injection, schedule: Q01DX001 (ip), vehicle: saline

Measured: T/C

COc1ccc(CCNC(=O)NC(C)(C)C)cc1OC
inactive: dose: 100.0 mg/kg/injection, schedule: Q04DX002 (ip), vehicle: saline with Tween-80 97 % of control | dose: 200.0 mg/kg/injection, schedule: Q04DX002 (ip), vehicle: saline with Tween-80 94 % of control | dose: 400.0 mg/kg/injection, schedule: Q04DX002 (ip), vehicle: saline with Tween-80 97 % of control

CCC[CH2][Sn]([CH2]CCC)([O][Sn]([CH2]CCC)([CH2]CCC)[S]C#N)[S]C#N
inactive: dose: 6.25 mg/kg/injection, schedule: Q01DX009 (ip), vehicle: Klucel (hydroxypropylcellulose) (HPC) 95 % of control | dose: 12.5 mg/kg/injection, schedule: Q01DX009 (ip), vehicle: Klucel (hydroxypropylcellulose) (HPC) 97 % of control | dose: 25.0 mg/kg/injection, schedule: Q01DX009 (ip), vehicle: Klucel (hydroxypropylcellulose) (HPC) 89 % of control

O=[N+]([O-])c1ccccc1C1=Cc2cccn2-c2ccccc2S1(=O)=O
inactive: dose: 100.0 mg/kg/injection, schedule: Q04DX003 (ip), vehicle: Klucel (hydroxypropylcellulose) (HPC) 95 % of control | dose: 200.0 mg/kg/injection, schedule: Q04DX003 (ip), vehicle: Klucel (hydroxypropylcellulose) (HPC) 100 % of control

O=C1OC(/C=C/c2ccccc2)=NC/1=C\C=C\c1ccccc1
inactive: [1] 107 % of control | [2] 104 % of control | [3] 104 % of control

OC1CC(c2ccccc2)C1(c1ccccc1)c1ccccc1 (stereo unspecified)
inactive: dose: 75.0 mg/kg/injection, schedule: Q01DX001 (ip), vehicle: other 104 % of control | dose: 150.0 mg/kg/injection, schedule: Q01DX001 (ip), vehicle: other 102 % of control | dose: 300.0 mg/kg/injection, schedule: Q01DX001 (ip), vehicle: other 94 % of control

CCn1cc(C(=O)O)c(=O)c2cc(OC)c3ccccc3c21
inactive: [4] 92 % of control | [1] 103 % of control

CNS(=O)(=O)CCC(N)C(=O)O (stereo unspecified)
inactive: [5] 97 % of control | [6] 103 % of control | [7] 97 % of control

O=C(O)CC(NC(=O)c1ccccc1)C(=O)O (stereo unspecified)
inactive: dose: 50.0 mg/kg/injection, schedule: Q01DX009 (ip), vehicle: saline 93 % of control | dose: 100.0 mg/kg/injection, schedule: Q01DX009 (ip), vehicle: saline 89 % of control | dose: 200.0 mg/kg/injection, schedule: Q01DX009 (ip), vehicle: saline 97 % of control

CC(CS)CS
inactive: [8] 95 % of control | [9] 95 % of control | [10] 95 % of control

COc1ccc(/C=N\O)cc1OC
inactive: [11] 94 % of control and 90 % of control | [12] 101 % of control | [13] 90 % of control

CCOC(=O)c1ccc(Nc2sc(C(=O)c3ccc(C)cc3C)c(N)c2C#N)cc1
inactive: dose: 100.0 mg/kg/injection, schedule: Q04DX002 (ip), vehicle: gum acacia 89 % of control | dose: 200.0 mg/kg/injection, schedule: Q04DX002 (ip), vehicle: gum acacia 92 % of control | dose: 400.0 mg/kg/injection, schedule: Q04DX002 (ip), vehicle: gum acacia 99 % of control

CCC(C)C(=O)Nc1ccc(Cl)c(Cl)c1 (stereo unspecified)
inactive: dose: 100.0 mg/kg/injection, schedule: Q01DX001 (ip), vehicle: Klucel (hydroxypropylcellulose) (HPC) 108 % of control | dose: 200.0 mg/kg/injection, schedule: Q01DX001 (ip), vehicle: Klucel (hydroxypropylcellulose) (HPC) 95 % of control | dose: 222.0 mg/kg/injection, schedule: Q01DX Z (ip), vehicle: methylcellulose (MC) 90 % of control | dose: 333.0 mg/kg/injection, schedule: Q01DX Z (ip), vehicle: methylcellulose (MC) 102 % of control | dose: 400.0 mg/kg/injection, schedule: Q01DX001 (ip), vehicle: Klucel (hydroxypropylcellulose) (HPC) 95 % of control | dose: 500.0 mg/kg/injection, schedule: Q01DX Z (ip), vehicle: methylcellulose (MC) 96 % of control

CC(=O)C(=O)C1=C2CCCN2CCc2cc3c(cc21)OCO3
inactive: [1] 111 % of control | [2] 114 % of control | [3] 118 % of control

Cc1ccc(B(O)O)cc1
inactive: dose: 50.0 mg/kg/injection, schedule: Q04DX002 (ip), vehicle: alcohol 107 % of control | dose: 100.0 mg/kg/injection, schedule: Q04DX002 (ip), vehicle: alcohol 101 % of control | dose: 200.0 mg/kg/injection, schedule: Q04DX002 (ip), vehicle: alcohol 101 % of control

CCCCCCC(C)O[Si](C)c1ccc(OC)cc1 (stereo unspecified)
inactive: [11] 107 % of control | [5] 98 % of control | [12] 105 % of control | [6] 101 % of control | [13] 98 % of control | [7] 102 % of control

CC(NC(=O)C(CCC(=O)O)NC(=O)C(N)C(C)C)C(=O)NCC(=O)NC(C(=O)NC(CCC(=O)O)C(=O)NC(C)C(=O)NCC(=O)NCC(=O)O)C(C)C (stereo unspecified) (H-VEAGVEAGG-OH; configuration not given here)
inactive: dose: 50.0 mg/kg/injection, schedule: Q01DX001 (ip), vehicle: saline 93 % of control | [14] 95 % of control | [15] 91 % of control

COc1ccccc1NP1(=O)OCC(C)([N+](=O)[O-])CO1 (stereo unspecified)
inactive: [8] 89 % of control | [9] 104 % of control | [10] 93 % of control

C=C1C(=O)OC2C1CCC(C)C1CC(O)C(O)C12C (stereo unspecified)
inactive: dose: 12.5 mg/kg/injection, schedule: Q04DX003 (ip), vehicle: Klucel (hydroxypropylcellulose) (HPC) 96 % of control | dose: 25.0 mg/kg/injection, schedule: Q04DX003 (ip), vehicle: Klucel (hydroxypropylcellulose) (HPC) 101 % of control | dose: 50.0 mg/kg/injection, schedule: Q04DX003 (ip), vehicle: Klucel (hydroxypropylcellulose) (HPC) 101 % of control

O=C1c2ccccc2C(=O)N1CCOCCOCCN1C(=O)c2ccccc2C1=O
inactive: dose: 25.0 mg/kg/injection, schedule: Q01DX009 (ip), vehicle: saline with Tween-80 108 % of control | dose: 50.0 mg/kg/injection, schedule: Q01DX009 (ip), vehicle: saline with Tween-80 96 % of control and 92 % of control | [11] 88 % of control and 92 % of control | [1] 98 % of control | [12] 98 % of control | [2] 98 % of control | [3] 98 % of control

CCCCOC(=O)c1ccc(O)c(OC)c1
inactive: [14] 100 % of control | [15] 105 % of control | [16] 102 % of control

CN1CCN(C)P1(=O)N1CCCC1
inactive: [14] 107 % of control | [15] 94 % of control | [16] 94 % of control

CC(=O)OCC1OC(n2cc(C)c(=O)[nH]c2=O)C(OC(C)=O)C(OC(C)=O)C1OC(C)=O (stereo unspecified)
inactive: [14] 94 % of control | [15] 105 % of control | [16] 97 % of control

CCC(C)OC(=O)Nc1cccc(OC(=O)NC)c1 (stereo unspecified)
inactive: [5] 104 % of control | [6] 94 % of control | [7] 97 % of control

O=C(COc1cccc(Cl)c1Cl)NCc1ccc(Cl)cc1
inactive: [11] 100 % of control | [12] 97 % of control | [13] 96 % of control

O=C1C(=O)C(C(=O)c2ccccc2)C(=O)C1C(=O)c1ccccc1 (stereo unspecified)
inactive: dose: 55.0 mg/kg/injection, schedule: Q01DX Z (ip), vehicle: saline 109 % of control | dose: 83.0 mg/kg/injection, schedule: Q01DX Z (ip), vehicle: saline 100 % of control | dose: 125.0 mg/kg/injection, schedule: Q01DX Z (ip), vehicle: saline 93 % of control

CN(C)NCCOC(c1ccccc1)c1ccccc1
inactive: dose: 25.0 mg/kg/injection, schedule: Q04DX002 (ip), vehicle: Klucel (hydroxypropylcellulose) (HPC) 102 % of control | [4] 106 % of control | [1] 95 % of control and 108 % of control

BrCCN1CCCCC1
inactive: dose: 1.56 mg/kg/injection, schedule: Q01DX009 (ip), vehicle: saline 104 % of control and 115 % of control | dose: 3.13 mg/kg/injection, schedule: Q01DX009 (ip), vehicle: saline 104 % of control and 112 % of control | dose: 6.25 mg/kg/injection, schedule: Q01DX009 (ip), vehicle: saline 101 % of control and 102 % of control | dose: 12.5 mg/kg/injection, schedule: Q01DX001 (ip), vehicle: saline 108 % of control | dose: 12.5 mg/kg/injection, schedule: Q04DX002 (ip), vehicle: saline 98 % of control and 106 % of control | dose: 12.5 mg/kg/injection, schedule: Q04DX003 (ip), vehicle: saline 91 % of control | dose: 25.0 mg/kg/injection, schedule: Q01DX001 (ip), vehicle: saline 105 % of control | dose: 25.0 mg/kg/injection, schedule: Q04DX002 (ip), vehicle: saline 106 % of control | dose: 25.0 mg/kg/injection, schedule: Q04DX003 (ip), vehicle: saline 96 % of control | dose: 50.0 mg/kg/injection, schedule: Q04DX002 (ip), vehicle: saline 104 % of control
